Patent US5583108A, “Vasonatrin peptide and analogs thereof” (Mayo Foundation for Medical Education and Research, priority 1994, dated 1996)

Key:
[1] = system: isolated normal canine blood vessels; test: Organ chamber isometric force: relaxation of phenylephrine-contracted vessel rings; set-up: species or system dog; details: for relaxation: maximal dose (3×10^-6 M); for maximal response, percent change in tension from a contraction to phenylephrine: peptide 3 × 10^-6 M, mean ± SEM
Experimental: (§1) The results obtained are expressed as the means ±SEM. In organ chamber studies, n equals the number of dogs from which rings were taken. Rings with and without endothelium were studied in parallel, and Student's t-test for unpaired observations was used to determine statistical significance among the responses of rings with and without endothelium and between responses of arteries and veins. In rat studies, the data were analyzed using ANOVA for repeated measures followed by Fisher's least significant difference test when appropriate within the group. Data between groups were analyzed by Student's unpaired t-test. Statistical significance was determined at p<0.05.
Rings cut from femoral, saphenous, renal and pulmonary arteries and veins obtained from random source mongrel dogs (anesthetized with 30 mg/kg pentobarbital sodium intravenously) were suspended for the measurement of isometric force in organ chambers filled with aerated (95% O2 and 5% CO2) modified Krebs-Ringer bicarbonate solution (composition in mM: 118.3 NaCl, 4.7 KCl, 2.5 CaCl2, 1.2 MgSO4, 1.2 KH2 PO4, 25.0 NaHCO3, 0.026 calcium sodium EDTA, and 11.1 dextrose; control solution) at 37° C. In one-half rings, the endothelium was removed by gently rubbing the intimal surface with a cotton swab wetted with control solution. Each ring was stretched to the optimal point on its length-tension curve as determined by the tension developed to norepinephrine (3×10^-7 M) at each level of stretch. The presence of endothelium was determined at the beginning of the experiment by a relaxation to acetylcholine (10^-6 M) during a contraction to norepinephrine at optimal length. The maximal tension of each ring was determined by norepinephrine (10^-4 M). To study responses to ANP, CNP and VNP, the rings were contracted with phenylephrine (10^-6 M). These contractions averaged 30-40% of the maximal contraction to norepinephrine. The peptides were added cumulatively once the contraction had stabilized.
The following commercially available drugs were used: acetylcholine chloride (Sigma Chemical, St. Louis, Mo.), human ANP and human CNP (Peninsula Laboratories, Belmont, Calif.), L-norepinephrine bitartrate (Sigma), phenylephrine bitartrate (Sigma). All drugs were dissolved in distilled water immediately prior to study, and the concentrations are reported as the final molar concentration (M) in the organ chamber.

normal rats = test: Cardiorenal actions after intravenous bolus in anesthetized normal rats; type: in vivo, Wistar rats; details: for MAP mean arterial pressure / HR heart rate / RAP right atrial pressure / UKV urine potassium excretion / UNaV urine sodium excretion / UV urine volume / UcGMPV urine cGMP volume / PcGMP plasma cGMP: mean ± SEM; for MAP mean arterial pressure: n = 4
Experimental: as §1
Experiments were conducted in accordance with the Animal Welfare Act. Wistar rats and spontaneously hypertensive rats (SHR) (400 g; Harlan Sprague-Dawley, Indianapolis, Ind.) were anesthetized with Inactin (100 mg/kg; intraperitoneal; BYK Gulden, Konstanz, Germany). The body temperature was maintained between 36° and 38° C. by a heating pad. Tracheostomy was performed; however, the animals were not artificially ventilated. Polyethylene catheters (PE-50; Becton Dickinson Co., Parsippany, N.J.) were placed in the left Jugular vein for infusions of saline and drugs, in the right jugular vein to right atrium to monitor right atrial pressure, and in the carotid artery for the collection of blood samples and to monitor mean arterial pressure. A PE-90 catheter was placed in the bladder for urine collection.
Experiments were conducted in three groups in normal rats: ANP group (n=4), CNP group (n=4), and VNP group (n=4). VNP also was studied in SHR rats (n=4). Intravenous infusions of saline solution (0.9% NaCl) were performed (1 ml/100 gm body weight/hr) through the left jugular vein catheter. After completion of surgery, rats were allowed to stabilize for 30 minutes. In each group, a 15-min baseline period followed. After the baseline period, saline solution (0.9% NaCl) was administered in a bolus fashion (0.1 ml) and was followed by a 15-min period. After the saline period, the peptide (ANP, CNP or VNP) was administered in a bolus fashion (0.1 ml) at 5 μg/kg which was followed by a 15-min period. This was followed by a second bolus (0.1 ml) at 50 μg/kg and a 15-min period. After a 30-min washout, a 15-min recovery period followed. During each experimental period, mean arterial pressure (MAP), heart rate (HR), and right atrial pressure (RAP) were measured. At the midpoint of baseline, second bolus fashion (50 μg/kg) and recovery periods, blood was sampled for plasma cGMP. At the end of each period, urine was measured for volume (UV), and samples were stored for electrolytes and cGMP analysis.
Blood for plasma cGMP analysis was collected into EDTA tubes, immediately placed on ice, and centrifuged at […] at 4° C. Plasma was separated and stored at -20° C. until assay. Urine for cGMP determination was heated to >90° C. before storage. Plasma and urine cGMP were determined by a specific RIA as previously described by A. L. Steiner et al., J. Hypertension, 5 (Suppl. 5) 551-553 (1987).

[2] = normal rats, high dose (50 μg/kg) bolus

For `CC[C@H](C)[C@@H]1NC(=O)[C@H](CCCNC(=N)N)NC(=O)[C@H](CC(=O)O)NC(=O)[C@H](CC(C)C)NC(=O)[C@H](CCCCN)NC(=O)[C@H](CC(C)C)NC(=O)CNC(=O)[C@H](Cc2ccccc2)NC(=O)[C@@H](NC(=O)CNC(=O)[C@H](CCCCN)NC(=O)[C@H](CO)NC(=O)[C@H](CC(C)C)NC(=O)CN)CSSC[C@@H](C(=O)O)NC(=O)CNC(=O)[C@H](CC(C)C)NC(=O)CNC(=O)[C@H](CO)NC(=O)[C@H](CCSC)NC(=O)[C@H](CO)NC(=O)CNC1=O` [CNP, C-type natriuretic peptide], the relaxation ([1]; femoral and saphenous arteries) was “no effects”, the “maximal response, percent change in tension from a contraction to phenylephrine” value (shortened to “maximal response, percent change”) ([1]; femoral artery, with endothelium, phenylephrine 10^-6 M) was 4 ± 3% and the “maximal response, percent change” value ([1]; femoral artery, without endothelium) was 10 ± 6%. The “maximal response, percent change” value ([1]; femoral vein, with endothelium) was 37 ± 8%, the “maximal response, percent change” value ([1]; femoral vein, without endothelium) was 73 ± 8% and the relaxation ([1]; femoral veins) was 90%. The “maximal response, percent change” value ([1]; pulmonary artery, with endothelium) was 12 ± 3%, the “maximal response, percent change” value ([1]; pulmonary artery, without endothelium) was 33 ± 5% and the “maximal response, percent change” value ([1]; pulmonary vein, with endothelium) was 31 ± 6%. For the same compound, the “maximal response, percent change” value ([1]; pulmonary vein, without endothelium) was 66 ± 4%, the “maximal response, percent change” value ([1]; renal artery, with endothelium) was 8 ± 2% and the “maximal response, percent change” value ([1]; renal artery, without endothelium) was 8 ± 2%. The “maximal response, percent change” value ([1]; renal vein, with endothelium) was 43 ± 4%, the “maximal response, percent change” value ([1]; renal vein, without endothelium) was 71 ± 5% and the “maximal response, percent change” value ([1]; saphenous artery, with endothelium) was 11 ± 7%. The “maximal response, percent change” value ([1]; saphenous artery, without endothelium) was 14 ± 8%, the “maximal response, percent change” value ([1]; saphenous vein, with endothelium) was 16 ± 1% and the “maximal response, percent change” value ([1]; saphenous vein, without endothelium) was 43 ± 10%. The relaxation ([1]; saphenous veins) was 40%, the “relaxation, % of the contraction to phenylephrine” value ([1]; systemic arteries (femoral, saphenous and renal)) was “less than 30%” and the “natriuretic action (in words)” value (normal rats; in vivo, rat) was “modest but significant natriuretic actions”. The “change in MAP and RAP (in words)” value (normal rats; [2]) was “significant decrease”, the “change in urine flow, sodium excretion, plasma cGMP and urinary cGMP volume (in words)” value (normal rats; [2]) was “increased” and the “MAP mean arterial pressure” value (normal rats; normal rats, iv bolus 5 μg/kg, 15-min period) was 100 ± 12 mmHg. For the same compound, the HR heart rate (normal rats; normal rats, iv bolus 5 μg/kg) was 363 ± 19 beats/min, the “RAP right atrial pressure” value (normal rats; normal rats, iv bolus 5 μg/kg) was 0 ± 1.5 mmHg and the “UKV urine potassium excretion” value (normal rats; normal rats, iv bolus 5 μg/kg) was 5.1 ± 1.6 µmol/min. The “UNaV urine sodium excretion” value (normal rats; normal rats, iv bolus 5 μg/kg) was 4.1 ± 1.4 µmol/min, the UV urine volume (normal rats; normal rats, iv bolus 5 μg/kg) was 27.6 ± 2.0 µL/min and the “UcGMPV urine cGMP volume” value (normal rats; normal rats, iv bolus 5 μg/kg) was 97 ± 32 pmol/min. For the same compound, the HR heart rate (normal rats; normal rats, iv bolus 50 μg/kg) was 365 ± 19 beats/min, the “PcGMP plasma cGMP” value (normal rats; normal rats, iv bolus 50 μg/kg) was 19.4 ± 2.7 pmol/mL and the “RAP right atrial pressure” value (normal rats; normal rats, iv bolus 50 μg/kg) was -2.3 ± 0.6 mmHg. The “UKV urine potassium excretion” value (normal rats; normal rats, iv bolus 50 μg/kg) was 7.6 ± 2.5 µmol/min, the “UNaV urine sodium excretion” value (normal rats; normal rats, iv bolus 50 μg/kg) was 12.1 ± 3.2 µmol/min and the UV urine volume (normal rats; normal rats, iv bolus 50 μg/kg) was 66.4 ± 7.4 µL/min. The “UcGMPV urine cGMP volume” value (normal rats; normal rats, iv bolus 50 μg/kg) was 323 ± 81 pmol/min, the “MAP mean arterial pressure” value (normal rats; normal rats, recovery period after 30-min washout) was 104 ± 11 mmHg and the HR heart rate (normal rats; normal rats, recovery period) was 363 ± 16 beats/min. The “PcGMP plasma cGMP” value (normal rats; normal rats, recovery period) was 3.6 ± 0.3 pmol/mL, the “RAP right atrial pressure” value (normal rats; normal rats, recovery period) was -0.1 ± 0.9 mmHg and the “UKV urine potassium excretion” value (normal rats; normal rats, recovery period) was 2.4 ± 1.1 µmol/min. The “UNaV urine sodium excretion” value (normal rats; normal rats, recovery period) was 2.9 ± 0.3 µmol/min, the UV urine volume (normal rats; normal rats, recovery period) was 21.2 ± 6.3 µL/min and the “UcGMPV urine cGMP volume” value (normal rats; normal rats, recovery period) was 70 ± 39 pmol/min. For the same compound, the “MAP mean arterial pressure” value (normal rats; normal rats, second iv bolus 50 μg/kg, 15-min period) was 87 ± 9 mmHg.
